Among the test systems are OVCAR-8 ovarian; HCT-116 colon; CAKI-1 renal; NCI-H226 lung; HL-60(TB) leukemia; NCI-H460 lung; BT-549 breast; 786-0 renal; CCRF-CEM leukemia; HT29 colon; UO-31 renal; SF-295 CNS; SF-539 CNS; HCC-2998 colon.
Common to all, as to assay: NCI anticancer screen, dose series, 48 h

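Compound exposure: 48 hours, 5 concentrations, 96-well plates. TGI marks complete inhibition of growth.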 Bounds are passed on as bounds.

Drawing on PubChem BioAssay (NCI), this text covers TGI for 1 compound.

In the case of `CC(C)(C(=O)N(C(=O)N1CCN(c2ccccc2)CC1)S(=O)(=O)c1ccccc1)c1ccc(Cl)cc1`, the TGI in the experiment with OVCAR-8 ovarian, in the experiment with HCT-116 colon, in the experiment on CAKI-1 renal, with NCI-H226 lung, with HL-60(TB) leukemia and with NCI-H460 lung was > 100 µM each time. Also, the TGI in the experiment on BT-549 breast was > 100 µM; in the experiment with 786-0 renal, > 100 µM; with CCRF-CEM leukemia, > 100 µM; in the experiment on HT29 colon it was > 100 µM; in the experiment with UO-31 renal, 34.3 µM; in the experiment with SF-295 CNS, > 100 µM. The TGI in the experiment with SF-539 CNS and in the experiment on HCC-2998 colon was > 100 µM throughout.
